Data reported in article PMC10747112, “Triphenylphosphine Derivatives of Allylbenzenes Express Antitumor and Adjuvant Activity When Solubilized with Cyclodextrin-Based Formulations” (Pharmaceuticals, 2023).

Legend:
in vitro = format: cell-based; conditions: human
Procedure: HEK293T are model normal (non-cancer) cells that are widely used to compare the selectivity of cytostatic formulations on cancer cells. According to the MTT test, the concentration of cytostatics of 100 µM causes the death of up to 85% of cancer cells A549 (Figure 4a), while for non-cancer cells (HEK293T), the dying rate is only 15–20%.
(§1) Adenocarcinomic human alveolar basal epithelial cells A549 cell lines (Manassas, VA, USA) were cultured in RPMI-1640 medium, linear cells of the embryonic kidney human epithelium (HEK293T) were grown in DMEM medium as described earlier. Cell lines were obtained from Lomonosov Moscow State University Depository of Live Systems Collection and Laboratory of Medical Biotechnology, Institute of Biomedical Chemistry (Moscow, Russia).
(§2) The cytotoxic activity of paclitaxel, Apiol-PPh3 and analogues was determined using an MTT test. Paclitaxel-adjuvant synergism coefficients (SC) were calculated as CV (paclitaxel) × CV (alone adjuvant)/CV (combo paclitaxel + adjuvant), where CV represents the cell viability. The synergy coefficient can be interpreted as strong synergy (SC > 2), synergy (2 > SC > 1.2), indifference/additivity (1.2 > SC > 0.8), antagonism (0.8 > SC > 0.5), and inhibition (SC < 0.5), as described earlier.

[1] = Solubility by UV spectroscopy (PBS, with and without M-β-CD); format: physicochemical; conditions: for solubility: aqueous buffer, thermodynamic from solid
Procedure: On the contrary, their complexes with M-β-CD are soluble, and a clear peak in the UV spectrum is pronounced (225 nm). Based on UV spectra data in the presence of M-β-CD, the increase in solubility of apiol-PPh3 and analogues by a second order of magnitude is observed (Table 2).
The solubility of apiol and apiol-PPh3 (or analogues) in aqueous solution was determined by UV spectroscopy. UV spectra were recorded on the UltraSpec 2100 pro device (AmerSham Biosciences, Cambridge, UK) three times. The substances were dissolved in acetonitrile followed by recording the UV spectra at various cytostatics’ concentrations, and then we plotted calibration dependencies. Next, saturated solutions of substances in water were prepared, and the spectra of the aqueous solutions were recorded. Considering the extinction coefficients in water and acetonitrile to be approximately equal, the solubility was determined.

[2] = Dissociation constants of complexes with M-β-CD by FTIR spectroscopy (Hill fit); format: physicochemical; conditions: X-PPh3, complex 1:1 molar ratio, PBS
Excerpt: (§3) FTIR spectroscopy provides valuable data on the interaction of molecules, including those applicable to characterize the non-covalent complexes of apiol-PPh3 (and analogues) with cyclodextrins and heparin. In the FTIR spectra of apiol-PPh3 and analogues (Figure 3a), one characteristic is the bands of valence oscillations of the bonds C=C of the aromatic system (1450–1650 cm^−1) overlapping with the bands of deformation oscillations C-H (1400–1500 cm^−1). The intensity of these peaks increases with the formation of non-covalent complexes of apiol-PPh3 and its analogues with cyclodextrins and heparin due to the transition of the solid phase into solution. Linear fitting of the intensity of peaks in the FTIR spectra on the cyclodextrin or heparin concentration (Section 2.3) in Hill coordinates allows determining the dissociation constants of the complexes (Table 2). The interactions of triphenylphosphine derivatives of allylbenzenes with γ-CD is rather weak (Kd 10 mM values). In the case of M-β-CD, the dissociation constants reach millimolar values, which is sufficient to obtain soluble forms of adjuvants (Table 2). Thus, the β-cyclodextrin derivatives are more suitable in terms of size for inclusion of the adjuvants studied. […] Comparing the values of the dissociation constants of alkylbenzenes and PPh3-derivatives complexes with cyclodextrins, we observed that these Kd values are close, which means that it is the allylbenzene-fragment (of apiol-PPh3) that plunges into the cyclodextrin cavity, and the triphenylphosphine radical looks outward (Figure 3b), which would provide the implementation of mitochondrial targeting of the developed formulations.
(§4) Non-covalent complexes of apiol, apiol-PPh3 and analogues with cyclodextrins (with different molar ratios) and heparin (15 kDa, 1:1 w/w) were obtained by adding solutions of cyclodextrins (100 mg/mL) or heparin (20 mg/mL) in PBS to apiol or apiol-PPh3 (or analogues) samples (2–3 mg). The excess of CDs or heparin was varied from 0.04 to 10 mol/mol. Then, mixtures were incubated for 1 h at 40 °C. Cyclodextrin or heparin are necessary for the solubilization of extremely poorly soluble compounds.
(§5) The ATR-FTIR spectra of samples (Section 3.3) were acquired using a Bruker Tensor 27 spectrometer equipped with a liquid N2 cooled MCT (mercury cadmium telluride) detector. Samples were placed in a thermostatic cell BioATR-II with ZnSe ATR element (Bruker, Germany). FTIR spectra were recorded from 850 to 4000 cm^−1 with 1 cm^−1 spectral resolution; 50 scans were accumulated and averaged. Spectral data were processed using the Bruker software system Opus 8.2.28 (Bruker, Germany). The spectrum of cyclodextrin or heparin in the corresponding concentration was subtracted from the spectra of the complexes. […]

[3] = Dissociation constants of complexes with γ-CD by FTIR spectroscopy (Hill fit); format: physicochemical; conditions: complex formed in molar excess of X approximately 1.2–1.4, PBS
Excerpt: as §3, §4, §5

A549 cells = assay: MTT assay, cytotoxic activity against A549; format: cell-based; conditions: Homo sapiens, A549; X in M-β-CD 1:5 mol/mol; MTT; read-out: −lg (IC50) of X in M-β-CD against A549 (converted)
Procedure: Concentrations of the active substance varied from 10^−2 to 10^−4 M. For MTT assay and biological experiments, substances in the concentration range from 10^−3 to 10^−9 M were studied by the dilution of initial ones in a cell growth medium or buffer.
as §1, §2

Solubility in the Presence of 0.05 M M-β-CD [1] [µM]	solubility [1] [µM]	−lg Kd (X − γ-CD) [3]	Structure (SMILES)	viability at 10 µM (in vitro) [%]	viability at 100 µM (in vitro) [%]	viability at 300 µM (in vitro) [%]	−lg Kd (X − M-β-CD) [2]	IC50 (A549 cells) [µM]
17000 ± 5000	70 ± 10	2.1 ± 0.2	COc1cc(CCC[P+](c2ccccc2)(c2ccccc2)c2ccccc2)c(OC)c(OC)c1OC [Allyltetramethoxybenzene-PPh3]	98 ± 1	88 ± 3	83 ± 4	3.1 ± 0.2	15.8
8000 ± 1000	90 ± 10	1.4 ± 0.3	COc1c(CCC[P+](c2ccccc2)(c2ccccc2)c2ccccc2)cc2c(c1OC)OCO2 [Dillapiol-PPh3]	95 ± 3	84 ± 5	70 ± 5	2.6 ± 0.2	2.51
12000 ± 3000	40 ± 5	1.3 ± 0.1	COc1cc(CCC[P+](c2ccccc2)(c2ccccc2)c2ccccc2)cc2c1OCO2 [Myristicin-PPh3]	97 ± 3	91 ± 2	75 ± 3	3.0 ± 0.3	5.01

Structure (SMILES)	Solubility in the Presence of 0.05 M M-β-CD [1] [µM]	solubility [1] [µM]	−lg Kd (X − γ-CD) [3]	viability at 10 µM (in vitro) [%]	viability at 100 µM (in vitro) [%]	viability at 300 µM (in vitro) [%]	−lg Kd (X − M-β-CD) [2]	IC50 (A549 cells) [µM]
COc1cc(CCC[P+](c2ccccc2)(c2ccccc2)c2ccccc2)c(OC)c2c1OCO2 [Apiol-PPh3]	15000 ± 2000	80 ± 10	1.2 ± 0.2	93 ± 2	82 ± 3	71 ± 2	2.9 ± 0.3	1.58
